Measurements published in ChEMBL document CHEMBL4765450, “The components and activities analysis of a novel anticoagulant candidate dHG-5” (Eur J Med Chem, 2020).
Calls of active or inactive are those of the source. The calls are words filed in the database; no cut-off is given here.

Key:
Plasma [1] = test: Induction of platelet aggregation in human platelet rich plasma at plasma peak concentration of 10 times anti-thrombosis ED50 measured after 10 mins by light transmission aggregometry
[2] = molecular target: Coagulation factor XI (Homo sapiens) (UniProt P03951); test: Inhibition of factor 11a (unknown origin) at IC90 using S-2366 as substrate preincubated for 1 min followed by chromogenic substrate addition and measured for 2 mins in presence of AT-III; settings: time 3.0 min
Rattus norvegicus [3] = test: Antithrombotic activity in thromboplastin and stasis-induced Sprague-Dawley rat deep venous thrombosis model assessed as reduction in venous thrombosis at 4.94 mg/kg, sc administered 1 hr prior to thromboplastin addition for 20 secs followed by establishment of stasis for 20 mins relative to dHG-5; format: functional; settings: time 80.33 min, 1.339 h
[4] = molecular target: T1, Coagulation factor IX/VIII (Homo sapiens) (UniProt P00740+P00451); test: Inhibition of human citrated plasma iXase (factor 8a-factor 9a complex) assessed as activity potency of oligosaccharides multiplied by the percentage of oligosaccharides in dHG-5 preincubated for 2 mins followed by factor 10 addition and measured after 1 min by FXa chromogenic substrate SXa-11 based assay relative to dHG-5; format: protein-complex assay; settings: time 3.0 min
[5] = molecular target: T2, Coagulation factor XII (Homo sapiens) (UniProt P00748); test: Inhibition of factor 12a (unknown origin) at IC50 using kallikrein chromogenic substrate preincubated for 1 min followed by chromogenic substrate addition and measured for 2 mins in presence of AT-III; settings: time 3.0 min
T2 sequence (whole entry): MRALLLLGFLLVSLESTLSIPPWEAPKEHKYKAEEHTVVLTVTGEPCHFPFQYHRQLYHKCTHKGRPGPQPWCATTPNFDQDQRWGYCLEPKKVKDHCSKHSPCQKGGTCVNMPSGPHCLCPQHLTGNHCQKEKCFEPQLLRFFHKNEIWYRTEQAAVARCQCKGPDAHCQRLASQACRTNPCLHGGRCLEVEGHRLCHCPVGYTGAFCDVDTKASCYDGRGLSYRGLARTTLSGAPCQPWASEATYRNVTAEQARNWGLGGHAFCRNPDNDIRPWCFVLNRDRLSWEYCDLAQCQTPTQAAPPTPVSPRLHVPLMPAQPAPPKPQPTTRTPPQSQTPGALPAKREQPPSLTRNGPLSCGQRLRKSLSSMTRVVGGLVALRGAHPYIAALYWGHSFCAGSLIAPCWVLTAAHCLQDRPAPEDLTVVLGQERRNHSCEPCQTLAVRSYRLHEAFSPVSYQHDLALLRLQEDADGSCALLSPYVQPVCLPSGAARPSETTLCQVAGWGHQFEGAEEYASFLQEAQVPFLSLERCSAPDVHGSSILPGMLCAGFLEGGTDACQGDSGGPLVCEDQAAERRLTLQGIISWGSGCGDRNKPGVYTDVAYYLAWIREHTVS

[6] = molecular target: T1, Coagulation factor IX/VIII (Homo sapiens); test: Inhibition of human citrated plasma iXase (factor 8a-factor 9a complex) preincubated for 2 mins followed by factor 10 addition and measured after 1 min by FXa chromogenic substrate SXa-11 based assay relative to dHG-5; format: protein-complex assay; settings: time 3.0 min
Plasma [7] = test: Anticoagulation activity in human plasma assessed as drug level causing 20 times doubling of APTT by measuring activity potency of oligosaccharides multiplied by the percentage of oligosaccharides in dHG-5 preincubated for 2 mins followed by APTT reagent and measured after 3 mins by coagulometric method relative to dHG-5; format: functional; settings: time 5 min
Rattus norvegicus [8] = test: Antithrombotic activity in thromboplastin and stasis-induced Sprague-Dawley rat deep venous thrombosis model assessed as reduction in venous thrombosis by measuring activity potency of oligosaccharides multiplied by the percentage of oligosaccharides in dHG-5 at 4.94 mg/kg, sc administered 1 hr prior to thromboplastin addition for 20 secs followed by establishment of stasis for 20 mins relative to dHG-5; format: functional; settings: time 80.33 min, 1.339 h
[9] = molecular target: T2, Coagulation factor XII (Homo sapiens); test: Inhibition of factor 12a (unknown origin) at IC50 using kallikrein chromogenic substrate preincubated for 1 min followed by chromogenic substrate addition and measured for 2 mins; settings: time 3.0 min
[10] = molecular target: Coagulation factor X (Homo sapiens) (UniProt P00742); test: Inhibition of factor 10a (unknown origin) at IC90 preincubated for 1 min followed by chromogenic substrate addition and measured for 2 mins in presence of AT-III relative to control; settings: time 3.0 min
[11] = molecular target: Prothrombin (Homo sapiens) (UniProt P00734); test: Inhibition of factor 2a (unknown origin) at IC50 preincubated for 1 min followed by chromogenic substrate addition and measured for 2 mins in presence of AT-III; settings: time 3.0 min
Coagulation factor IX [12] = molecular target: T3, Coagulation factor IX (Homo sapiens, UniProt P00740); test: Inhibition of factor 9a (unknown origin) binding to immobilized biotinylated oHG-11 assessed as activity potency of oligosaccharides multiplied by the percentage of oligosaccharides in dHG-5 by biolayer interferometry relative to dHG-5
Plasma [13] = test: Induction of platelet aggregation in rat wash platelet at plasma peak concentration of 10 times anti-thrombosis ED50 measured after 10 mins by light transmission aggregometry
[14] = molecular target: T4, Coagulation factor VII (Homo sapiens) (UniProt P08709); test: Inhibition of factor 7a (unknown origin) at IC50 using pefachrome factor VIIa as substrate preincubated for 1 min followed by chromogenic substrate addition and measured for 2 mins; settings: time 3.0 min
T4 sequence (whole entry): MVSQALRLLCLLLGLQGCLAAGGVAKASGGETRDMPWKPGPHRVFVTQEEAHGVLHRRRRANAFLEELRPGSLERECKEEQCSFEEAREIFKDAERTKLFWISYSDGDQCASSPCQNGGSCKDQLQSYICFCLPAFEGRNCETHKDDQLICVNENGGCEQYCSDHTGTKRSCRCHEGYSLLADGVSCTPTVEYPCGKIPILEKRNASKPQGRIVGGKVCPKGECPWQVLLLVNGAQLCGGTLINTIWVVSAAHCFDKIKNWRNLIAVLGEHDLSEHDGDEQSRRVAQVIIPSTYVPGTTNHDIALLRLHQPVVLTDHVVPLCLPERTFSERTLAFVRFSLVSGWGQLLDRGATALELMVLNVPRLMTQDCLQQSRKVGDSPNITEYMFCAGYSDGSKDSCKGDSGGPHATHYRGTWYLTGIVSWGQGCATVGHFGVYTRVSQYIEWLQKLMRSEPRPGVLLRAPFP

Coagulation factor IX [15] = molecular target: T3, Coagulation factor IX; test: Inhibition of factor 9a (unknown origin) binding to immobilized biotinylated oHG-11 by biolayer interferometry relative to dHG-5
Plasma [16] = test: Anticoagulation activity in AT-III-deficient human plasma preincubated for 2 mins followed by APTT reagent and measured after 3 mins by coagulometric method; format: functional, cell-free; settings: time 5.0 min
Plasma [17] = test: Anticoagulation activity in HCII-deficient human plasma preincubated for 2 mins followed by APTT reagent and measured after 3 mins by coagulometric method; format: functional, cell-free; settings: time 5.0 min
[18] = molecular target: Coagulation factor X (Homo sapiens) (UniProt P00742); test: Inhibition of factor 10a (unknown origin) at IC50 preincubated for 1 min followed by chromogenic substrate addition and measured for 2 mins in presence of AT-III; settings: time 3.0 min
[19] = molecular target: Coagulation factor XI (Homo sapiens) (UniProt P03951); test: Inhibition of factor 11a (unknown origin) at IC50 using S-2366 as substrate preincubated for 1 min followed by chromogenic substrate addition and measured for 2 mins; settings: time 3.0 min
[20] = molecular target: Coagulation factor X (Homo sapiens) (UniProt P00742); test: Inhibition of factor 10a (unknown origin) at IC50 preincubated for 1 min followed by chromogenic substrate addition and measured for 2 mins; settings: time 3.0 min
[21] = molecular target: Prothrombin (Homo sapiens) (UniProt P00734); test: Inhibition of factor 2a (unknown origin) at IC50 preincubated for 1 min followed by chromogenic substrate addition and measured for 2 mins; settings: time 3.0 min
Plasma [22] = test: Anticoagulation activity in human plasma assessed as drug level causing 20 times doubling of APTT preincubated for 2 mins followed by APTT reagent and measured after 3 mins by coagulometric method relative to dHG-5; format: functional; settings: time 5 min
[23] = molecular target: Prothrombin (Homo sapiens) (UniProt P00734); test: Inhibition of factor 2a (unknown origin) at IC90 preincubated for 1 min followed by chromogenic substrate addition and measured for 2 mins in presence of AT-III; settings: time 3.0 min
[24] = molecular target: Coagulation factor XI (Homo sapiens) (UniProt P03951); test: Inhibition of factor 11a (unknown origin) at IC50 using S-2366 as substrate preincubated for 1 min followed by chromogenic substrate addition and measured for 2 mins in presence of AT-III; settings: time 3.0 min
[25] = molecular target: T4, Coagulation factor VII (Homo sapiens); test: Inhibition of factor 7a (unknown origin) at IC50 using pefachrome factor VIIa as substrate preincubated for 1 min followed by chromogenic substrate addition and measured for 2 mins in presence of AT-III; settings: time 3.0 min
[26] = molecular target: Coagulation factor IX/VIII (Homo sapiens, UniProt P00451+P00740); test: Inhibition of human citrated plasma iXase (factor 8a-factor 9a complex) preincubated for 2 mins followed by factor 10 addition and measured after 1 min by FXa chromogenic substrate SXa-11 based assay; format: protein-complex assay
Rattus norvegicus [27] = test: Antithrombotic activity in thromboplastin and stasis-induced Sprague-Dawley rat deep venous thrombosis model assessed as reduction in venous thrombosis at 13.5 mg/kg, sc administered 1 hr prior to thromboplastin addition for 20 secs followed by establishment of stasis for 20 mins relative to dHG-5; format: functional; settings: time 80.33 min, 1.339 h
Plasma [28] = test: Anticoagulation activity in human plasma assessed as drug level causing 20 times doubling of APTT preincubated for 2 mins followed by APTT reagent and measured after 3 mins by coagulometric method; format: functional; settings: time 5 min
Rattus norvegicus [29] = test: Antithrombotic activity in thromboplastin and stasis-induced Sprague-Dawley rat deep venous thrombosis model assessed as reduction in venous thrombosis by measuring activity potency of oligosaccharides multiplied by the percentage of oligosaccharides in dHG-5 at 13.5 mg/kg, sc administered 1 hr prior to thromboplastin addition for 20 secs followed by establishment of stasis for 20 mins relative to dHG-5; format: functional; settings: time 80.33 min, 1.339 h
Rattus norvegicus [30] = test: Antithrombotic activity in thromboplastin and stasis-induced Sprague-Dawley rat deep venous thrombosis model assessed as reduction in venous thrombosis at 13.5 mg/kg, sc administered 1 hr prior to thromboplastin addition for 20 secs followed by establishment of stasis for 20 mins; format: functional; set-up: scale not given: the % may be the effect or the level left; settings: time 80.33 min, 1.339 h
Coagulation factor IX [31] = molecular target: T3, Coagulation factor IX; test: Inhibition of factor 9a (unknown origin) binding to immobilized biotinylated oHG-11 by biolayer interferometry

Coagulation factor X (Homo sapiens), sequence (P00742 41-179 limits assumed): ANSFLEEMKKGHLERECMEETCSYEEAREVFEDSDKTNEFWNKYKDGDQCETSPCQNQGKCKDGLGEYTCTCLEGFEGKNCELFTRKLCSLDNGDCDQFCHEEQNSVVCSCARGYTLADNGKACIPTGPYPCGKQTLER
Coagulation factor X (Homo sapiens), sequence (P00742 235-488 limits assumed): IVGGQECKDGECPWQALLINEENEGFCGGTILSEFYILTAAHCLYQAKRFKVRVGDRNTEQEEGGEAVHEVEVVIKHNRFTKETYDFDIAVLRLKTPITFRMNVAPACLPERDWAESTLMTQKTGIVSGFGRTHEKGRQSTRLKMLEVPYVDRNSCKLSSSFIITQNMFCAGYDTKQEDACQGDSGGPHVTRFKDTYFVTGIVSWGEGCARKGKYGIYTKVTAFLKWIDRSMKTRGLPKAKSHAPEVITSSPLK
T3 sequence (P00740 47-191 limits assumed): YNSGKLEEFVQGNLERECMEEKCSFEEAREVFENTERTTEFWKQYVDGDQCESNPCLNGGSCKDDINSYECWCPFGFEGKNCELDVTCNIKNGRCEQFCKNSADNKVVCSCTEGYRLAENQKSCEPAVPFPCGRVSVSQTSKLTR
T3 sequence (P00740 227-461 limits assumed): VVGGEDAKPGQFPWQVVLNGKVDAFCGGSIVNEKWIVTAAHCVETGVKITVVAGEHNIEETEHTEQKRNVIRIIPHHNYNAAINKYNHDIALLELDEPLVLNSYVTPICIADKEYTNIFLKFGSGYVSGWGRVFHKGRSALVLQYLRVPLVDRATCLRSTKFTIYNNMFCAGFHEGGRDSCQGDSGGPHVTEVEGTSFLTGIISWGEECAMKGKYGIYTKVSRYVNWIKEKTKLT
Coagulation factor XI (Homo sapiens), sequence (P03951 19-387 limits assumed): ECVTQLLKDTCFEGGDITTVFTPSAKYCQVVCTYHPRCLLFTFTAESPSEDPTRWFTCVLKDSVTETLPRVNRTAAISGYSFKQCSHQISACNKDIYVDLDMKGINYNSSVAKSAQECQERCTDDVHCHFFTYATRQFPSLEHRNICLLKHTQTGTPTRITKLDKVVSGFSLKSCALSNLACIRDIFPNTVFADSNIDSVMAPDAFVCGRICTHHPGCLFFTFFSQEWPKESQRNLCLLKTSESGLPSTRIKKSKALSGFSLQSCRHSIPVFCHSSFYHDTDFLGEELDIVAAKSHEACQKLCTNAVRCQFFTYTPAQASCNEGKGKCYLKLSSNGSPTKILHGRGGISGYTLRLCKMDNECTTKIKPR
Coagulation factor XI (Homo sapiens), sequence (P03951 388-625 limits assumed): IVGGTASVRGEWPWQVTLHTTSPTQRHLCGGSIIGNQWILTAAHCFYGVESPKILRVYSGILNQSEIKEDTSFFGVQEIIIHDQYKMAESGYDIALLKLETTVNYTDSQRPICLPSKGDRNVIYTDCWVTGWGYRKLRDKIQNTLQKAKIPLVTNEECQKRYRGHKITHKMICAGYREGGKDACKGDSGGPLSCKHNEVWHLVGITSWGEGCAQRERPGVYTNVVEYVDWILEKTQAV
Coagulation factor IX/VIII, sequence (P00451 20-759 limits assumed): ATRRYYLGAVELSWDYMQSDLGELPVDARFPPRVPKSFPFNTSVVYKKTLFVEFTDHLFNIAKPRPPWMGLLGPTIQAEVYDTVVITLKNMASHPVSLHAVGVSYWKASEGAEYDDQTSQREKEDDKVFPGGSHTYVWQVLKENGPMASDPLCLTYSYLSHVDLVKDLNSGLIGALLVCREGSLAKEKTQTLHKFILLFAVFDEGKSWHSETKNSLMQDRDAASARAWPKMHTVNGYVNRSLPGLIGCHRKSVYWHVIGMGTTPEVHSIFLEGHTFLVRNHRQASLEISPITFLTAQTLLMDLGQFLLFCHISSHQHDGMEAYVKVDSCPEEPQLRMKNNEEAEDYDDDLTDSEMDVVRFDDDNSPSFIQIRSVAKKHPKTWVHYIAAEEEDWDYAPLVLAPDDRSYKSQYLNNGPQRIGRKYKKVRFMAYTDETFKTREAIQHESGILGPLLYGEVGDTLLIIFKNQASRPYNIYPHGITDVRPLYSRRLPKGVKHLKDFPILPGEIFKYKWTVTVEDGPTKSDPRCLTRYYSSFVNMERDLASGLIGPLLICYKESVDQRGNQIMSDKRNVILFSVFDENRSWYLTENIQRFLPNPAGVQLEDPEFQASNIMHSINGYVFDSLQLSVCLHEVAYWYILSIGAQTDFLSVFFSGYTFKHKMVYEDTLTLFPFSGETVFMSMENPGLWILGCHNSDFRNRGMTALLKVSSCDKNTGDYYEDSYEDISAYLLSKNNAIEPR
Coagulation factor IX/VIII, sequence (P00451 1668-2351 limits assumed): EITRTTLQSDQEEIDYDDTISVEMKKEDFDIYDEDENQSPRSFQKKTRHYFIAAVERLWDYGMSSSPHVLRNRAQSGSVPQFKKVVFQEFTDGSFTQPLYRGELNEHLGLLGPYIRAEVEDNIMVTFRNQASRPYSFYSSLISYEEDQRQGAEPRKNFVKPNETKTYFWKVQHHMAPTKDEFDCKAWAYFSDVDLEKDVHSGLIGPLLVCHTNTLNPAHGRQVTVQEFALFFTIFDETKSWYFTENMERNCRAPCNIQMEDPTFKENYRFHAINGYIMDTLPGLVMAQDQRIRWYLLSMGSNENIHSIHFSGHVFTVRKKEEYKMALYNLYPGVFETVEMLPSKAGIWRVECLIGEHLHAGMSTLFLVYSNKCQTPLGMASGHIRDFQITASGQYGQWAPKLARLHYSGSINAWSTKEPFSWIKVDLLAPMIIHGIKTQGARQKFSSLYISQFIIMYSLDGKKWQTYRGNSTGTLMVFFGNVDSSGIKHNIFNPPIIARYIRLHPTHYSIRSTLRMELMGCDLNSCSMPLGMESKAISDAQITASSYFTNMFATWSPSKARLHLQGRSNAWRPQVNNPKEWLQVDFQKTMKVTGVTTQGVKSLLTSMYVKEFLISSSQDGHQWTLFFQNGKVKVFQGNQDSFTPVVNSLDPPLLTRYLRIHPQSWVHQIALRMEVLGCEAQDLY
Coagulation factor IX/VIII, sequence (P00740 47-191 limits assumed): as the sequence (P00740 47-191 limits assumed) above
Coagulation factor IX/VIII, sequence (P00740 227-461 limits assumed): as the sequence (P00740 227-461 limits assumed) above

## CC(=O)N[C@H]1[C@H](O[C@@H]([C@H](O[C@@H]2O[C@@H](C)[C@@H](OS(=O)(=O)[O-])[C@@H](OS(=O)(=O)O)[C@@H]2O)[C@@H](O)CO)[C@H](O)C(=O)[O-])O[C@@H](COS(=O)(=O)[O-])[C@H](OS(=O)(=O)[O-])[C@@H]1O[C@@H]1O[C@H](C(=O)[O-])[C@@H](O[C@@H]2O[C@H](COS(=O)(=O)[O-])[C@H](OS(=O)(=O)[O-])[C@H](O[C@@H]3OC(C(=O)[O-])=C[C@H](O[C@@H]4O[C@@H](C)[C@@H](OS(=O)(=O)[O-])[C@@H](S(=O)(=O)O)[C@@H]4O)[C@H]3O)[C@H]2NC(C)=O)[C@H](O[C@@H]2O[C@@H](C)[C@@H](OS(=O)(=O)[O-])[C@@H](OS(=O)(=O)O)[C@@H]2O)[C@@H]1O.[Na+].[Na+].[Na+].[Na+].[Na+].[Na+].[Na+].[Na+].[Na+].[Na+]
Plasma [1]
  Activity: Not Active
[2]
  inhibition: Active
Rattus norvegicus [3]
  Ratio: 24.31 U
[4]
  Ratio: 1.56 U
[5]
  inhibition: inactive
[6]
  Ratio: 8.98 U
Plasma [7]
  Ratio: 1.91 U
Rattus norvegicus [8]
  Ratio: 4.23 U
[9]
  inhibition: inactive
[10]
  inhibition: 14.2%
[11]
  inhibition: inactive
Coagulation factor IX [12]
  Ratio: 2.27 U
Plasma [13]
  Activity: Not Active
[14]
  inhibition (active/not active): inactive
Coagulation factor IX [15]
  Ratio: 13 U
Plasma [16]
  Activity: Active
Plasma [17]
  Activity: Active
[18]
  inhibition: inactive
[19]
  inhibition: inactive
[20]
  inhibition: inactive
[21]
  inhibition: inactive
Plasma [22]
  Ratio: 10.96 U
[23]
  inhibition: Active
[24]
  inhibition: inactive
[25]
  inhibition: inactive

## CC(=O)N[C@H]1[C@H](O[C@@H]([C@H](O[C@@H]2O[C@@H](C)[C@@H](OS(=O)(=O)[O-])[C@@H](OS(=O)(=O)O)[C@@H]2O)[C@@H](O)CO)[C@H](O)C(=O)[O-])O[C@H](COS(=O)(=O)[O-])[C@H](OS(=O)(=O)[O-])[C@@H]1O[C@@H]1OC(C(=O)[O-])=C[C@H](O[C@@H]2O[C@@H](C)[C@@H](OS(=O)(=O)[O-])[C@@H](OS(=O)(=O)O)[C@@H]2O)[C@H]1O.[Na+].[Na+].[Na+].[Na+].[Na+].[Na+]
[26]
  IC50: > 3 µM
[2]
  inhibition: Active
Rattus norvegicus [27]
  Ratio: 3.96 U
[4]
  Ratio: 0.02 U
[5]
  inhibition: inactive
[6]
  Ratio: 0.36 U
Plasma [7]
  Ratio: 0.04 U
[9]
  inhibition: inactive
[10]
  inhibition: 14.2%
[11]
  inhibition: inactive
Coagulation factor IX [12]
  Ratio: 0.16 U
[14]
  inhibition (active/not active): Active
Coagulation factor IX [15]
  Ratio: 3.32 U
Plasma [16]
  Activity: Active
Plasma [17]
  Activity: Active
Plasma [28]
  EC: 199 µM
Rattus norvegicus [29]
  Ratio: 0.19 U
[18]
  inhibition: inactive
Rattus norvegicus [30]
  Activity: 30.8%
[19]
  inhibition: inactive
[20]
  inhibition: inactive
[21]
  inhibition: inactive
Plasma [22]
  Ratio: 0.9 U
Coagulation factor IX [31]
  IC50: 12.9 µM
[23]
  inhibition: Active
[24]
  inhibition: inactive
[25]
  inhibition: inactive
